According to PubChem BioAssay (NCI):
Values joined by “and” are separate entries in the source; they are usually repeats but may differ in a detail not shown here. Equal values may be shown once.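 Test compounds were applied to cells in 96-well plates for 48 hours at 5 doses. GI50 is the concentration that inhibits growth by half. TGI: concentration producing complete growth inhibition.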

How the values were obtained:
Test in all cases: NCI anticancer screen, dose series, 48 h
[1] = system: NCI-H522 lung
[2] = system: OVCAR-5 ovarian
[3] = system: HL-60(TB) leukemia
[4] = system: K-562 leukemia
[5] = system: OVCAR-4 ovarian
[6] = system: SN12C renal
[7] = system: CAKI-1 renal
[8] = system: U251 CNS
[9] = system: SK-MEL-28 melanoma
[10] = system: HCC-2998 colon

Row | SMILES | TGI [1] | TGI [2] | TGI [3] | TGI [4] | TGI [5] | TGI [6] | TGI [7] | TGI [8] | TGI [9] | TGI [10] | GI50 [1] | GI50 [2] | GI50 [3] | GI50 [4] | GI50 [5] | GI50 [6] | GI50 [7] | GI50 [8] | GI50 [9] | GI50 [10]
1 | O=C1c2ccccc2-c2c1c1ccccc1c(=O)n2CCO | > 100 µM | > 100 µM | 7.29 µM | > 100 µM | > 100 µM | > 100 µM | > 51.7 µM | > 100 µM | > 100 µM | > 100 µM | – | – | – | – | – | – | – | – | – | –
2 | Nc1cccc2c1C(=O)N(C1CCC(=O)NC1=O)C2=O (stereo not given) | > 100 µM | > 100 µM | > 100 µM | > 100 µM | > 100 µM | > 100 µM | > 100 µM | > 100 µM | > 100 µM | > 100 µM | > 100 µM | > 100 µM | > 100 µM | > 100 µM | > 100 µM | > 100 µM | > 100 µM | > 100 µM | > 100 µM | > 100 µM
3 | CC1(C)CC(=O)C2=C(C1)NC(SSC1=C(C#N)C(c3ccccc3)C3=C(CC(C)(C)CC3=O)N1)=C(C#N)C2c1ccccc1 (stereo not given) | 47.7 µg/mL | 50.9 µg/mL | 97.8 µg/mL | 145 µg/mL | 44.8 µg/mL | 43.7 µg/mL | 49.4 µg/mL | 64.2 µg/mL | 48.6 µg/mL | 52.6 µg/mL | 26.1 µg/mL | 27.8 µg/mL | 33.7 µg/mL | 42.3 µg/mL | 23.6 µg/mL | 23.5 µg/mL | 28.3 µg/mL | 33.2 µg/mL | 27.7 µg/mL | 27.8 µg/mL
4 | N[C@H]1C2C3CC4C5CC(C42)C1(c1ccccc1)C53 (stereo not given in full) | > 100 µM | > 100 µM | > 100 µM | > 100 µM | > 100 µM | > 100 µM | > 100 µM | > 100 µM | > 100 µM | > 100 µM | – | – | – | – | – | – | – | – | – | –
5 | O=C1C=C[C@]2(C[C@@H](c3cccc(C(F)(F)F)c3)O[C@@H](c3cccc(C(F)(F)F)c3)O2)O1 | 3.99 µM | 26.1 µM | 8.34 µM | > 100 µM | 19.3 µM | 12.4 µM | 12.4 µM | 12.9 µM | 6.44 µM | 3.18 µM | 1.59 µM | 7.76 µM | 1.88 µM | 2.68 µM | 5.24 µM | 2.91 µM | 2.95 µM | 2.58 µM | 2.34 µM | 1.63 µM
6 | COC(=O)[C@]12CC[C@@H](C)[C@H](C)[C@@H]1C1=CC[C@@H]3[C@@]4(C)CC(=O)[C@H](O)[C@@]5(C)COC(=C45)C[C@@]3(C)[C@]1(C)CC2 | 35.7 µM | 37.7 µM | 40.9 µM | 41.8 µM | 36 µM | 39.2 µM | 29.3 µM | 31.9 µM | 38.6 µM | 33.1 µM | 19.4 µM | 18.4 µM | 19.5 µM | 20.5 µM | 17.1 µM | 19 µM | 15.6 µM | 17.9 µM | 19.2 µM | 17.7 µM
7 | Nc1nc(N)[n+]([O-])c(N)c1NCO | > 100 µM | > 100 µM | > 100 µM | > 100 µM | > 100 µM | > 100 µM | > 100 µM | > 100 µM | > 100 µM | > 100 µM | – | – | – | – | – | – | – | – | – | –
8 | CC1(C)N=C(N)N=C(N)N1c1cccc(/C=C/C=C/c2cccc([N+](=O)[O-])c2)c1 | 20.1 µM | 42.5 µM | 13 µM | 19.6 µM | 22.5 µM | 20.1 µM | > 100 µM | 13.6 µM | 20.5 µM | 18.5 µM | 4.72 µM | 10.5 µM | 2.55 µM | 3.29 µM | 5.54 µM | 5.3 µM | 75.3 µM | 0.801 µM | 7.1 µM | 4.71 µM
9 | O=[N+]([O-])c1ccc(-c2ccc(/C=N/n3c(-c4ccc(Cl)cc4)n[nH]c3=S)o2)cc1 | > 100 µM | > 100 µM | > 100 µM | > 31.6 µM | > 61.8 µM | > 100 µM | > 90.1 µM | > 53.7 µM | 34 µM | > 100 µM | – | – | – | – | – | – | – | – | – | –
10 | O=C(c1cccs1)c1c(C(F)(F)F)n([O-])c2ccc(C(F)(F)F)cc2[n+]1=O | 0.455 µM | 0.494 µM | 0.526 µM | 1.21 µM | 0.531 µM | 0.468 µM | 0.337 µM | 0.322 µM | 0.908 µM | 1.28 µM | 0.204 µM | 0.205 µM | 0.145 µM | 0.251 µM | 0.224 µM | 0.195 µM | 0.18 µM | 0.179 µM | 0.451 µM | 0.647 µM
11 | CCOC(=O)c1cnc(SCc2ccc(Cl)c(Cl)c2)nc1N1CC1 | 6.88 µM | 19.4 µM | 9.13 µM | 14.8 µM | 14 µM | 21.2 µM | 6.98 µM | 18.2 µM | 19.9 µM | 4.73 µM | 2.23 µM | 4.67 µM | 1.72 µM | 1.15 µM | 3.17 µM | 4.37 µM | 2.08 µM | 3.71 µM | 5.88 µM | 2.07 µM
12 | CCCCCCCCCCCCc1ccc(C(=O)/C=C/C(=O)O)cc1 | 4.73 µM | 23.1 µM | 3.58 µM | 5.74 µM | 4.46 µM | 4.14 µM | 3.58 µM | 18.9 µM | 3.74 µM | 17.7 µM | 1.98 µM | 10.3 µM | 1.56 µM | 2.13 µM | 2.06 µM | 1.83 µM | 1.76 µM | 5.63 µM | 1.92 µM | 5.45 µM
13 | COC1C=C(Nc2cccc(Cl)c2)C(=O)C1 (stereo not given) | > 100 µM | > 100 µM | > 100 µM | > 100 µM | > 100 µM | > 100 µM | > 100 µM | > 100 µM | > 100 µM | > 100 µM | – | – | – | – | – | – | – | – | – | –
14 | CCOC(=O)CCC(NC(=O)c1ccc(N=Cc2nc3cc(C(F)(F)F)ccc3nc2-c2ccccc2)cc1)C(=O)OCC (stereo not given) | 50 µM and > 100 µM | > 100 µM | 50 µM and > 100 µM | > 100 µM | 50 µM and > 100 µM | > 100 µM | 50 µM and > 100 µM | 19.4 µM and 57.1 µM | > 100 µM | > 100 µM | 21.5 µM | > 100 µM | 65.3 µM | > 100 µM | > 100 µM | > 100 µM | > 100 µM | 9.75 µM | > 100 µM | > 100 µM
15 | COc1cc(CCc2cc(NC(=O)c3ccc(N4C[C@@H](C)N[C@@H](C)C4)cc3)n[nH]2)cc(OC)c1 | > 10 µM and 24.5 µM | > 10 µM and 16.9 µM | > 10 µM and 14.9 µM | > 10 µM and 15.8 µM | > 10 µM and 18.5 µM | > 10 µM and 15.7 µM | > 10 µM and 21.8 µM | > 10 µM and 18 µM | > 10 µM and 20.9 µM | > 10 µM and 19.5 µM | > 10 µM and 9.95 µM | > 10 µM and 5.01 µM | 2.47 µM and 4.15 µM | 6.89 µM and 4.18 µM | > 10 µM and 3.73 µM | 6.39 µM and 3.31 µM | > 10 µM and 5.76 µM | > 10 µM and 3.86 µM | > 10 µM and 7.74 µM | > 10 µM and 6.77 µM
16 | O=[N+]([O-])c1ccc(Sc2ncccn2)c([N+](=O)[O-])c1 | 3.11 µM | 19.8 µM | 15.8 µM | 12.1 µM | 13.5 µM | 13.9 µM | 3.59 µM | 15.3 µM | 13.5 µM | 26.5 µM | 1.64 µM | 7.35 µM | 2.37 µM | 2.52 µM | 2.96 µM | 3.46 µM | 1.36 µM | 4.46 µM | 3.89 µM | 13 µM
17 | C[C@H]1[C@H](OC(=O)CCC(=O)O)O[C@@H]2O[C@]3(C)CC[C@H]4[C@H](C)CC[C@@H]1[C@@]24OO3 | 5.43 µM | 20.5 µM | 0.566 µM | 10 µM | 28.1 µM | > 48.9 µM | 36 µM | 18.5 µM | > 100 µM | 24 µM | 0.365 µM | 0.669 µM | 0.167 µM | 0.443 µM | 1.28 µM | 0.777 µM | 0.532 µM | 0.503 µM | 4.27 µM | 1.48 µM
18 | S=c1[nH]nc(COc2ccc(Cl)cc2)o1 | > 100 µM | > 100 µM | > 100 µM | > 100 µM | > 100 µM | > 100 µM | > 100 µM | > 100 µM | > 100 µM | > 100 µM | – | – | – | – | – | – | – | – | – | –
19 | C/C(=N\N(C)C)c1sc(-n2nc(-c3ccccc3)cc2-c2ccccc2)nc1C | > 100 µM | 82.4 µM | > 100 µM | > 100 µM | > 100 µM | > 100 µM | > 100 µM | > 100 µM | > 100 µM | > 100 µM | – | – | – | – | – | – | – | – | – | –
